Results taken from patent publication US20220397565A1, “METHODS OF SCREENING AND RELATED SYSTEMS” (RECURSION PHARMACEUTICALS, INC., priority 2021, published 2022).

Assays:
[1] = tested on: Cells transduced with BacMam BRAF V600E; experiment: Morphological profiling of BacMam BRAF V600E transduced cells treated with test agents; format: cell-based; conditions: for side effect score versus disease score (position relative to the funnel, FIG. 10): cells expressing BRAF V600E, varying concentrations of compound, dot plot FIG. 10; for quantified reversal of the disease state (rescue of BRAF V600E overexpression phenotype): morphological profile of treated vs not treated BRAF V600E-transduced cells, 18 compounds tested
From the text: (§1) Morphological profiles may be generated by various methods. In an embodiment, morphologically profiling cells may comprise imaging relevant cells or tracking certain parameters or features of the cells. The tracking may be of staining intensities in one or more imaging channels, correlations between imaging channels, textural patterns, size and shape of cellular structures, geometric relationships between intracellular structures, geometric relationships between adjacent cells, or combinations thereof. Cellular features, such as 100 or more cellular features, 500 or more cellular features, or 1000 or more cellular features, may be tracked when morphologically profiling cells. Among various methods of determining these cellular features, they may be obtained by imaging cells with or without fluorescent or non-fluorescent stains or combinations thereof, and numeric features determined by using deep learning embeddings, hand-tuned feature extraction, or combinations thereof. Other than tracking the cellular features, the morphological profiling may include reducing the output of the cellular features using statistical modeling such as principal component analysis.
Pathogenic and non-pathogenic transduced cells were cultured then morphologically profiled. A heatmap of cosine similarities between all pairs of groups (or reagents), origined by method one were generated (FIG. 7). Shown are cells transduced with BacMam vectors having BRAF V600E, KRAS G12C, KRAS G12D, MFN1, MFN1T109A, CTNNB1B, EPAS1, SMO F460L, ALK, EGFR, and some of their nonsense counterparts. […] Cosine similarities between all pairs of feature vectors that were origin by method two in FIG. 7 (FIG. 8).
Cells transduced with BacMam BRAF V600E were treated with varying concentrations of 18 compounds which include dabrafenib and vemurafenib, which target BRAF, and ulixertinib and MEK162, which target downstream biology. […] The difference in features caused by transducing the cells with BRAF V600E was determined. The effect of compounds on those features was determined within the BRAF V600E-transduced cells and also the effects of compounds on features not related to transduction with BRAF V600E. […] The efficacy of test agents in reversing a disease state can be quantified. This is calculated based on morphological profiling of cells treated with a test agent compared to cells not treated with a test agent.

[2] = tested on: EGFR-overexpressing cells; experiment: Morphological profiling of BacMam EGFR transduced cells treated with test agents; format: cell-based; conditions: cosine similarity, treated vs not-treated EGFR overexpressing cells, FIG. 9
From the text: as §1

Cn1cnc2c(F)c(Nc3ccc(Br)cc3F)c(C(=O)NOCCO)cc21 [MEK162]
side effect score versus disease score (position relative to the funnel, FIG. 10) [1]: Separation from the funnel | quantified reversal of the disease state (rescue of BRAF V600E overexpression phenotype) [1]: some of the top test agents

CC(C)(C)c1nc(-c2cccc(NS(=O)(=O)c3c(F)cccc3F)c2F)c(-c2ccnc(N)n2)s1 [dabrafenib]
side effect score versus disease score (position relative to the funnel, FIG. 10) [1]: Separation from the funnel | quantified reversal of the disease state (rescue of BRAF V600E overexpression phenotype) [1]: some of the top test agents

COc1cc2ncnc(Nc3ccc(F)c(Cl)c3)c2cc1NC(=O)/C=C/CN1CCCCC1 [dacomitinib]
quantification of the reversal of the disease state (modulation of phenotypes of EGFR overexpressing cells) [2]: top two test agents

CC(C)Nc1cc(-c2c[nH]c(C(=O)N[C@H](CO)c3cccc(Cl)c3)c2)c(Cl)cn1 [ulixertinib]
side effect score versus disease score (position relative to the funnel, FIG. 10) [1]: Separation from the funnel | quantified reversal of the disease state (rescue of BRAF V600E overexpression phenotype) [1]: some of the top test agents
